Results from patent publication US9617330B2, “Chemorepulsion of cells” (Celtaxsys, Inc., priority 2006, dated 2017).
Like-named read-outs stand apart in the source and are kept apart here.

Columns and labels:
[1] = test system: B-cell; experiment: Trans-well migration assay (Example 1), net migratory response; settings: net observed response
Protocol: Prior to beginning the assay 0.5% Fetal Calf Serum (FCS) in Iscove's Modified Dulbecco's Medium (IMDM) is prepared and stored on ice (Assay Medium). Migratory cells at a concentration of 2×10^7 cells/ml are suspended in Assay Medium. T-cells isolated from donor blood or buffy coats are allowed to rest overnight in Assay Medium at 37° C. in 5% CO2. Neutrophils, monocytes and B cells are utilized as soon as they are purified from donor blood or other source of human origin. Four serial (10×) dilutions of the ligand are then prepared in Assay Medium (normally 10 μg/ml to 0.01 μg/ml).
Plates are removed from the packaging, leaving the membrane behind and intact. The membrane is set aside. Into each well is pipetted 31 μl of solution. For media controls and fugetaxis (chemorepellent) samples, Assay Medium is used. For chemoattraction samples, the appropriate dilution of agent in assay medium is used.
Using a sterile needle, all small bubbles present in each well are popped and the membrane is carefully placed onto the plate, starting at one side and slowly lowering the other edge onto the plate.
Then 29 μl is pipetted into each circle imprinted on the polycarbonate or polyester membrane. For media controls and chemoattraction samples, Assay Medium is used. For fugetaxis (chemorepellent) samples, the appropriate dilution of ligand in assay medium is used.
To each 29 uL aliquot above is added 2 μl of cells (40,000 cells). It is important to ensure that before beginning the cells are well suspended and that they are mixed. This mixing can be accomplished by agitating the tube between each addition.
The plate is then covered with the supplied lid and incubated 1-3 hours in a humidified incubator at 37° C. in 5% CO2. Following the incubation period, the liquid from the top of the plate is removed with a tissue or similar blotting material (e.g. a Kimwipe). The membrane is carefully removed from the top of the plate and discarded. […] Using a multichannel pipettor, each well of the microplate is rinsed with 25 μl Phosphate Buffered Saline (Mediatech #21-040-CV) and transferred to the same wells in the white microplate. Using a multichannel pipettor, 50 μl CellTiter-Glo Luminescent Cell Viability Assay (Promega #G7572) is added to each well and mixed.
The plate is read using the Perkin Elmer Victor^3V plate reader using the Large Aperture Luminescence setting at 8 mm height above the plate with a dwell time of 1 s to quantify the number of migrated cells.
The results reported reflect the net observed migratory response of the cells to the ligand and are not based on the definition of unimodal fugetaxins.

[2] = test system: Neutrophils; experiment: High throughput transmigration assay (Example 9), chemorepulsion; format: cell-based, human
[3] = test system: Monocyte; experiment: Trans-well migration assay (Example 1), net migratory response
[4] = test system: Eo-HL60 (HL-60 clone 15 differentiated to eosinophil-like phenotype); experiment: as above; format: cell-based, human; settings: net observed response
[5] = Neutrophils, mean of three donors at concentration of highest activity, range 0.00125-1.25 μM
[6] = neutrophils, 0.00125 μM, one donor, triplicate, ± SD
[7] = neutrophils, 0.0125 μM, one donor, triplicate, ± SD
[8] = neutrophils, 0.125 μM, one donor, triplicate, ± SD
[9] = neutrophils, 1.25 μM, one donor, triplicate, ± SD
[10] = Monocyte, net observed response

Row | Molecule | Migratory Response [1] | Migratory Response [3, 10] | Migratory Response [4] | also measured
1 | COc1cc(CNC(=O)CCCC/C=C/C(C)C)ccc1O [Capsaicin, reference compound] | chemorepulsion |  |  | 
2 | CC[C@H]1OC(=O)[C@H](C)[C@@H](O[C@H]2C[C@@](C)(OC)[C@@H](O)[C@H](C)O2)[C@H](C)[C@@H](O[C@@H]2O[C@H](C)C[C@H](N(C)C)[C@H]2O)[C@](C)(O)C[C@@H](C)C(=O)[C@H](C)[C@@H](O)[C@]1(C)O [Erythromycin, reference compound] |  |  |  | Repellent Index [2, 5]: 4.8; Repellent Index [2, 6]: 1.75 ± 0.40; Repellent Index [2, 7]: 2.29 ± 1.61; Repellent Index [2, 8]: 3.29 ± 1.11; Repellent Index [2, 9]: 6.12 ± 2.53
3 | O=c1c(-c2ccc(O)cc2)coc2cc(O)cc(O)c12 [Genistein, reference compound] | chemorepulsion |  |  | Repellent Index [2, 5]: 1.3
4 | CC(C)=CCC[C@]1(C)[C@@H](CC=C(C)C)C[C@@]2(CC=C(C)C)C(=O)[C@]1(C(=O)C(C)C)C(=O)C(CC=C(C)C)=C2O [Hyperforin, reference compound] |  |  |  | Migratory Response [3]: chemorepulsion
5 | CC(=O)O[C@H]1C(=O)[C@@]2(C)[C@H]([C@H](OC(=O)c3ccccc3)[C@]3(O)C[C@H](OC(=O)[C@H](O)[C@@H](NC(=O)c4ccccc4)c4ccccc4)C(C)=C1C3(C)C)[C@]1(OC(C)=O)CO[C@@H]1C[C@@H]2O [Paclitaxel, reference compound] |  | chemorepulsion | chemorepulsion | 
6 | O.O.O=c1c(O)c(-c2ccc(O)c(O)c2)oc2cc(O)cc(O)c12 [Quercetin dihydrate, reference compound] | chemorepulsion |  | chemorepulsion | 
7 | Oc1ccc(C=Cc2cc(O)cc(O)c2)cc1 [Resveratrol, reference compound] | chemorepulsion |  | chemorepulsion | Repellent Index [2, 5]: 1.4; Repellent Index [2, 6]: 2.65 ± 0.29; Repellent Index [2, 7]: 2.80 ± 0.32; Repellent Index [2, 8]: 2.05 ± 0.28; Repellent Index [2, 9]: 1.32 ± 0.50
8 | (−)-Epigallocatechin Gallate [EGCG ((−)-Epigallocatechin Gallate), reference compound] | chemorepulsion |  |  | 
9 | Antithrombin III |  |  |  | Repellent Index ([2]; Neutrophils, mean of three donors at concentration of highest activity, range 0.000573-0.573 μM): 2.2; Repellent Index ([2]; neutrophils, 0.000573 μM, one donor, triplicate, ± SD): 1.08 ± 0.36; Repellent Index ([2]; neutrophils, 0.00573 μM, one donor, triplicate, ± SD): 1.63 ± 0.67; Repellent Index ([2]; neutrophils, 0.0573 μM, one donor, triplicate, ± SD): 3.17 ± 0.98; Repellent Index ([2]; neutrophils, 0.573 μM, one donor, triplicate, ± SD): 5.55 ± 1.71
10 | CXCL2: chemokine |  |  |  | Repellent Index [2, 5]: 1.6
11 | Concanavalin A | chemorepulsion | chemorepulsion |  | 
12 | Eotaxin: chemokine | chemorepulsion |  |  | 
13 | Galectin-1: carbohydrate binding protein (galectin), full-length, purchased; accession P09382 |  | chemorepulsion | chemorepulsion | Repellent Index [2, 5]: 2.3; Repellent Index [2, 6]: 0.80 ± 0.08; Repellent Index [2, 7]: 0.96 ± 0.22; Repellent Index [2, 8]: 1.05 ± 0.14; Repellent Index [2, 9]: 3.70 ± 0.29
14 | Galectin-7: full-length galectin protein, purchased | chemorepulsion |  |  | 
15 | HSP40 Human: heat shock protein; accession BAA08495 |  | chemorepulsion | chemorepulsion | Repellent Index [2, 5]: 1.4
16 | Lipid A Diphos [reference compound] |  |  | chemorepulsion | 

Row | Molecule | Migratory Response [1] | Migratory Response [3, 10] | Migratory Response [4] | also measured
17 | MCP-4: chemokine | chemorepulsion | chemorepulsion |  | 
18 | N-acetylmuramyl (MDP) [reference compound] |  |  | chemorepulsion | Migratory Response [3]: chemorepulsion
19 | Poly(I:C) [reference compound] | chemorepulsion | chemorepulsion | chemorepulsion | Repellent Index ([2]; Neutrophils, mean of three donors at concentration of highest activity, range 0.01-10 μg/ml): 1.4
20 | Tropomyosin |  |  |  | Repellent Index [2, 5]: 1.7; Repellent Index [2, 6]: 2.57 ± 0.73; Repellent Index [2, 7]: 2.26 ± 0.86; Repellent Index [2, 8]: 2.23 ± 0.68; Repellent Index [2, 9]: 1.67 ± 0.16
21 | MDC: chemokine (protein, UniProt O00626 25-93, looked up) C-C motif chemokine 22: GPYGANMEDSVCCRDYVRYRLPLRVVKHFYWTSDSCPRPGVVLLTFRDKEICADPRVPWVKMILNKLSQ | chemorepulsion |  |  | 
22 | Cathespin G, Human Neutrophil: Cathespin G, Human Neutrophil (protein, UniProt P08311 21-244, looked up) Cathepsin G: IIGGRESRPHSRPYMAYLQIQSPAGQSRCGGFLVREDFVLTAAHCWGSNINVTLGAHNIQRRENTQQHITARRAIRHPQYNQRTIQNDIMLLQLSRRVRRNRNVNPVALPRAQEGLRPGTLCTVAGWGRVSMRRGTDTLREVQLRVQRDRQCLRIFGSYDPRRQICVGDRRERKAAFKGDSGGPLLCNNVAHGIVSYGKSSGVPPEVFTRVSSFLPWIRTTMRS | chemorepulsion | chemorepulsion | chemorepulsion | 
23 | Eotaxin-3: chemokine (protein, UniProt Q9Y258 24-94, looked up) C-C motif chemokine 26: TRGSDISKTCCFQYSHKPLPWTWVRSYEFTSNSCSQRAVIFTTKRGKKVCTHPRKKWVQKYISLLKTPKQL | chemorepulsion | chemorepulsion |  | 
24 | Eotaxin-2: chemokine (protein, UniProt O00175 27-119, looked up) C-C motif chemokine 24: VVIPSPCCMFFVSKRIPENRVVSYQLSSRSTCLKAGVIFTTKKGQQFCGDPKQEWVQRYMKNLDAKQKKASPRARAVAVKGPVQRYPGNQTTC | chemorepulsion | chemorepulsion |  | 
25 | TARC: chemokine (protein, UniProt Q92583 24-94, looked up) C-C motif chemokine 17: ARGTNVGRECCLEYFKGAIPLRKLKTWYQTSEDCSRDAIVFVTVQGRAICSDPNNKRVKNAVKYLQSLERS | chemorepulsion |  |  | 
26 | Fractalkine: chemokine (protein, UniProt P78423 25-397, looked up) Fractalkine: QHHGVTKCNITCSKMTSKIPVALLIHYQQNQASCGKRAIILETRQHRLFCADPKEQWVKDAMQHLDRQAAALTRNGGTFEKQIGEVKPRTTPAAGGMDESVVLEPEATGESSSLEPTPSSQEAQRALGTSPELPTGVTGSSGTRLPPTPKAQDGGPVGTELFRVPPVSTAATWQSSAPHQPGPSLWAEAKTSEAPSTQDPSTQASTASSPAPEENAPSEGQRVWGQGQSPRPENSLEREEMGPVPAHTDAFQDWGPGSMAHVSVVPVSSEGTPSREPVASGSWTPKAEEPIHATMDPQRLGVLITPVPDAQAATRRQAVGLLAFLGLLFCLGVAMFTYQSLQGCPRKMAGEMAEGLRYIPRSCGSNSYVLVPV | chemorepulsion | chemorepulsion |  | 
27 | SLC: chemokine (protein, UniProt O00585 24-134, looked up) C-C motif chemokine 21: SDGGAQDCCLKYSQRKIPAKVVRSYRKQEPSLGCSIPAILFLPRKRSQAELCADPKELWVQQLMQHLDKTPSPQKPAQGCRKDRGASKTGKKGKGSKGCKRTERSQTPKGP |  | chemorepulsion |  | 
28 | HCC-1: chemokine (protein, UniProt Q16627 20-93, looked up) C-C motif chemokine 14: TKTESSSRGPYHPSECCFTYTTYKIPRQRIMDYYETNSQCSKPGIVFITKRGHSVCTNPSDKWVQDYIKDMKEN | chemorepulsion |  |  | 
29 | MIP-1 beta: chemokine (protein, UniProt P13236 24-92, looked up) C-C motif chemokine 4: APMGSDPPTACCFSYTARKLPRNFVVDYYETSSLCSQPAVVFQTKRSKQVCADPSESWVQEYVYDLELN | chemorepulsion | chemorepulsion |  | 
30 | RANTES: chemokine (protein, UniProt P13501 24-91, looked up) C-C motif chemokine 5: SPYSSDTTPCCFAYIARPLPRAHIKEYFYTSGKCSNPAVVFVTRKNRQVCANPEKKWVREYINSLEMS | chemorepulsion | chemorepulsion |  | 
31 | HSP32 Rat: heat shock protein; accession P06762/AAH91164 (protein, UniProt P06762 1-289, looked up) Heme oxygenase 1: MERPQLDSMSQDLSEALKEATKEVHIRAENSEFMRNFQKGQVSREGFKLVMASLYHIYTALEEEIERNKQNPVYAPLYFPEELHRRAALEQDMAFWYGPHWQEAIPYTPATQHYVKRLHEVGGTHPELLVAHAYTRYLGDLSGGQVLKKIAQKAMALPSSGEGLAFFTFPSIDNPTKFKQLYRARMNTLEMTPEVKHRVTEEAKTAFLLNIELFEELQALLTEEHKDQSPSQTEFLRQRPASLVQDTTSAETPRGKSQISTSSSQTPLLRWVLTLSFLLATVAVGIYAM |  |  | chemorepulsion | Repellent Index [2, 5]: 1.8
32 | Leukotactin-1: chemokine (protein, UniProt Q16663 22-113, looked up) C-C motif chemokine 15: QFTNDAETELMMSKLPLENPVVLNSFHFAADCCTSYISQSIPCSLMKSYFETSSECSKPGVIFLTKKGRQVCAKPSGPGVQDCMKKLKPYSI | chemorepulsion |  |  | 
